Results published in ChEMBL document CHEMBL1145605, “Novel 2-imidazoles as potent and selective alpha1A adrenoceptor partial agonists” (Bioorg Med Chem Lett, 2008).

Assays:
[1] = target: T1, Alpha-2A adrenergic receptor (Homo sapiens, UniProt P08913); assay: Agonist activity at human cloned adrenergic alpha-2A receptor expressed in CHOK1 cells by beta-lactamase reporter gene assay; assay type: functional, cell-based, CHO-K1
T1 sequence (P08913 whole entry): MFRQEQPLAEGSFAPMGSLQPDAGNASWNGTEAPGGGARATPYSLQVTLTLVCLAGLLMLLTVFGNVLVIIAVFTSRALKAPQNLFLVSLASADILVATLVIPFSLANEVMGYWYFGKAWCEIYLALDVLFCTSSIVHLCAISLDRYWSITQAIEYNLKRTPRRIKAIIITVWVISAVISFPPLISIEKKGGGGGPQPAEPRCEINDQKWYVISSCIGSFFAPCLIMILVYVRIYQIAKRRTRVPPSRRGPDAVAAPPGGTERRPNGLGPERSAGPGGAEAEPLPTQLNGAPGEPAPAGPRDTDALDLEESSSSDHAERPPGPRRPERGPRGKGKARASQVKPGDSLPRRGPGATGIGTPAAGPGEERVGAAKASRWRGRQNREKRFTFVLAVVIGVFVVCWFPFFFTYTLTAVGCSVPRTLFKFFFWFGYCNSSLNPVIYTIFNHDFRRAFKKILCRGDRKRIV

[2] = target: T2, Alpha-1D adrenergic receptor (Homo sapiens, UniProt P25100); assay: Agonist activity at human cloned adrenergic Alpha-1D receptor expressed in CHO cells assessed as calcium mobilization by FLIPR; assay type: functional, cell-based
T2 sequence (P25100 whole entry): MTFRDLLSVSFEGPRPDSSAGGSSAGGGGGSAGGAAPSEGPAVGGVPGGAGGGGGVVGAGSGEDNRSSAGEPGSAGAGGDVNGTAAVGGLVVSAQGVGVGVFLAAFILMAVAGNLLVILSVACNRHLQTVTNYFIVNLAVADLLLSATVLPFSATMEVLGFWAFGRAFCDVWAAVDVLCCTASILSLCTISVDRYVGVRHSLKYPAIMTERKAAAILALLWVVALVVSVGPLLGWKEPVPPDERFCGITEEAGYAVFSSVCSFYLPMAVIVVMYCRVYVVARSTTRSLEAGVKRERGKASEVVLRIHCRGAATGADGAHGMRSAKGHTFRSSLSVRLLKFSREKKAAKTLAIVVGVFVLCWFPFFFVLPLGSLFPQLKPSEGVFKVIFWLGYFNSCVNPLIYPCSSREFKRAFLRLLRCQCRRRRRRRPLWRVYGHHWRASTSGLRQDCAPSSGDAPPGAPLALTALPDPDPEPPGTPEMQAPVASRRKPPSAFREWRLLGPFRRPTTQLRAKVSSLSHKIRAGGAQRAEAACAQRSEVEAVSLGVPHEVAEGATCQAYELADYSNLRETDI

[3] = target: T3, Alpha-1B adrenergic receptor (Homo sapiens, UniProt P35368); assay: Agonist activity at human cloned adrenergic alpha-1B receptor expressed in CHO cells assessed as calcium mobilization by FLIPR; assay type: functional, cell-based
T3 sequence (P35368 whole entry): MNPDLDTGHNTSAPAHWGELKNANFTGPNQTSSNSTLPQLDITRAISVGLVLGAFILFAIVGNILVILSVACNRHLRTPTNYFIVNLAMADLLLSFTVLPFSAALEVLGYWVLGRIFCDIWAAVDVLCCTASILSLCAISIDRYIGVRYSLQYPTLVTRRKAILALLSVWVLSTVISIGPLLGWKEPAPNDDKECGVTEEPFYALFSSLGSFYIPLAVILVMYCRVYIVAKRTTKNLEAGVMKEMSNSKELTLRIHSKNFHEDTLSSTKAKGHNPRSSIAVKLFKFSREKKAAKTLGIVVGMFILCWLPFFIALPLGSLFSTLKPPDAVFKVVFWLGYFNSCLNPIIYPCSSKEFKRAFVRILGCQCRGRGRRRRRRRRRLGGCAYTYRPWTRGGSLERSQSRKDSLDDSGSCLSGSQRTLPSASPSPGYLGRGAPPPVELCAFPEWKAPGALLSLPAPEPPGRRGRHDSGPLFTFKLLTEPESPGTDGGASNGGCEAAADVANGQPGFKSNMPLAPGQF

[4] = target: T4, Alpha-1A adrenergic receptor (Homo sapiens, UniProt P35348); assay: Agonist activity at human cloned adrenergic alpha-1A receptor expressed in CHO cells assessed as calcium mobilization by FLIPR; assay type: functional, cell-based
T4 sequence (P35348 whole entry): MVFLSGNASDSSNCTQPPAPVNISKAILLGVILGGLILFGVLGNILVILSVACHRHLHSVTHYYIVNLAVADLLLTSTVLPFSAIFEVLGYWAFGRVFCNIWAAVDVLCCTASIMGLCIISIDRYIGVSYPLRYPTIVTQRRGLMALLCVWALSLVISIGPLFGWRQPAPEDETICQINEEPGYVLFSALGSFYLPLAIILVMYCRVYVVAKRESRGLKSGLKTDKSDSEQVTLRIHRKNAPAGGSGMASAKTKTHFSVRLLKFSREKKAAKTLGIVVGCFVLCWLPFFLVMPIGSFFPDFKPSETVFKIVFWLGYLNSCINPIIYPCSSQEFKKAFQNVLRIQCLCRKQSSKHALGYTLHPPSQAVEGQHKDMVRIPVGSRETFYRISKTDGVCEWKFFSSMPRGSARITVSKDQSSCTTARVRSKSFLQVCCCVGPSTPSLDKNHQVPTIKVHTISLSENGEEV

[5] = target: T5, Alpha-1A adrenergic receptor (Homo sapiens) (UniProt P35348); assay: Agonist activity at human cloned adrenergic alpha-1A receptor expressed in CHO cells assessed as calcium mobilization by FLIPR relative to phenylephrine; assay type: functional, cell-based
T5 sequence (whole entry): T4 sequence (P35348 whole entry)

[6] = target: T6, Alpha-2A adrenergic receptor (Homo sapiens) (UniProt P08913); assay: Agonist activity at human cloned adrenergic alpha-2A receptor expressed in CHOK1 cells by beta-lactamase reporter gene assay relative to dexmeditomidine; assay type: functional, cell-based; conditions: CHO-K1
T6 sequence (whole entry): T1 sequence (P08913 whole entry)

[7] = target: T7, Alpha-1D adrenergic receptor (Homo sapiens) (UniProt P25100); assay: Agonist activity at human cloned adrenergic Alpha-1D receptor expressed in CHO cells assessed as calcium mobilization by FLIPR relative to phenylephrine; assay type: functional, cell-based
T7 sequence (whole entry): T2 sequence (P25100 whole entry)

[8] = target: T8, Alpha-1B adrenergic receptor (Homo sapiens) (UniProt P35368); assay: Agonist activity at human cloned adrenergic Alpha-1B receptor expressed in CHO cells assessed as calcium mobilization by FLIPR relative to phenylephrine; assay type: functional, cell-based
T8 sequence (whole entry): T3 sequence (P35368 whole entry)

SMILES	EC50 [1]	EC50 [2]	EC50 [3]	EC50 [4]	Emax [5]	Emax [6]	Emax [7]	Emax [8]	EC50 ([1]; cho-k1)	EC50 ([2]; cho)	EC50 ([3]; cho)
c1cc(-c2cc[nH]n2)c2c(c1)C(c1ncc[nH]1)CC2 (stereo not drawn)	> 10000 nM	336 nM	600 nM	52 nM							
Cc1ccc2c(c1NS(C)(=O)=O)CCC2c1ncc[nH]1 (stereo not drawn)		> 10000 nM	> 10000 nM	33 nM	83%						
COc1c(Cl)ccc2c1CCC2c1ncc[nH]1 (stereo not drawn)		> 10000 nM	> 10000 nM	451 nM	24%						
c1cncc(-c2cccc3c2CCC3c2ncc[nH]2)c1 (stereo not drawn)	4580 nM	> 10000 nM	> 10000 nM	2060 nM	36%	25%					
c1ccc(-c2cccc3c2CCC3c2ncc[nH]2)nc1 (stereo not drawn)	> 10000 nM	> 10000 nM	> 10000 nM	1150 nM	53%						
c1ccc2c(c1)CCC2c1ncc[nH]1 (stereo not drawn)		> 10000 nM	> 10000 nM	473 nM	54%						
Cc1[nH]ncc1-c1cccc2c1CCC2c1ncc[nH]1 (stereo not drawn)	> 10000 nM	634 nM	902 nM	3 nM							
CCS(=O)(=O)Nc1cccc2c1CCC2c1ncc[nH]1 (stereo not drawn)	> 10000 nM	> 10000 nM	> 10000 nM	32 nM	86%						
CS(=O)(=O)Nc1cccc2c1CCCC2c1ncc[nH]1 (stereo in doubt; 17a) [listing 1 of 2 here]					79%						
CS(=O)(=O)Nc1cccc2c1CCCC2c1ncc[nH]1 (stereo in doubt; 17b) [listing 1 of 2 here]					47%						
c1cc(-c2nccs2)c2c(c1)C(c1ncc[nH]1)CC2 (stereo not drawn)	> 10000 nM	3190 nM	> 10000 nM	426 nM	64%		27%				
CS(=O)(=O)Nc1cccc2c1CCCC2c1ncc[nH]1 (stereo in doubt; 17) [listing 1 of 2 here]					79%						
c1cc(-c2ncco2)c2c(c1)C(c1ncc[nH]1)CC2 (stereo not drawn)	> 10000 nM	1390 nM	> 10000 nM	170 nM	63%		38%				
CS(=O)(=O)Nc1cccc2c1CCCC2c1ncc[nH]1 (stereo in doubt; 17b) [listing 2 of 2 here]	> 10000 nM	> 10000 nM	> 10000 nM	2150 nM							
c1ccc2c(c1)CCCC2c1ncc[nH]1 (stereo not drawn)	722 nM	364 nM	791 nM	385 nM	71%	105%	74%	58%			
Cn1nccc1-c1cccc2c1CCC2c1ncc[nH]1 (stereo not drawn)	> 10000 nM	> 10000 nM	> 10000 nM	278 nM	58%						
COc1c(C)ccc2c1CCC2c1ncc[nH]1 (stereo not drawn)	327 nM	> 10000 nM	> 10000 nM	167 nM	40%	89%					

SMILES	EC50 [1]	EC50 [2]	EC50 [3]	EC50 [4]	Emax [5]	Emax [6]	Emax [7]	Emax [8]	EC50 ([1]; cho-k1)	EC50 ([2]; cho)	EC50 ([3]; cho)
CCS(=O)(=O)Nc1cccc(Cc2c[nH]cn2)c1	> 10000 nM	> 10000 nM	> 10000 nM	9 nM	96%						
CCCS(=O)(=O)Nc1cccc2c1CCC2c1ncc[nH]1 (stereo not drawn)		> 10000 nM	> 10000 nM	1340 nM	54%						
CS(=O)(=O)Nc1cccc2c1CCC2c1ncc[nH]1 (stereo not drawn)	> 10000 nM	> 10000 nM	> 10000 nM	70 nM	87%						
CS(=O)(=O)Nc1cccc2c1CCCC2c1ncc[nH]1 (stereo in doubt; 17a) [listing 2 of 2 here]				142 nM					> 10000 nM	> 10000 nM	> 10000 nM
COc1cccc2c1CCC2c1ncc[nH]1 (stereo not drawn)	27 nM	> 10000 nM	> 10000 nM	32 nM	65%	100%					
Clc1ccc2c(c1-c1cn[nH]c1)CCC2c1ncc[nH]1 (stereo not drawn)	> 10000 nM	> 10000 nM	> 10000 nM	78 nM							
Clc1ccc2c(c1-c1ccn[nH]1)CCC2c1ncc[nH]1 (stereo not drawn)	> 10000 nM	> 10000 nM	> 10000 nM	322 nM	40%						
Cc1c(OCC2=NCCN2)ccc(Cl)c1NS(C)(=O)=O [DABUZALGRON]	> 10000 nM	> 10000 nM	> 10000 nM		60%						
c1cc(-c2ccn[nH]2)c2c(c1)C(c1ncc[nH]1)CC2 (stereo not drawn)					83%		57%	32%			
CS(=O)(=O)Nc1cccc2c1CCCC2c1ncc[nH]1 (stereo in doubt; 17) [listing 2 of 2 here]				234 nM					> 10000 nM	> 10000 nM	> 10000 nM
Cc1oncc1-c1cccc2c1CCC2c1ncc[nH]1 (stereo not drawn)	> 10000 nM	> 10000 nM	> 10000 nM	111 nM	63%						
c1cc(-c2cn[nH]c2)c2c(c1)C(c1ncc[nH]1)CC2 (stereo not drawn)	> 10000 nM	319 nM	> 10000 nM	14 nM	84%		52%				
Cc1n[nH]cc1-c1cccc2c1CCC2c1ncc[nH]1 (stereo not drawn)					91%		66%	14%			
Cn1cc(-c2cccc3c2CCC3c2ncc[nH]2)cn1 (stereo not drawn)	> 10000 nM	> 10000 nM	> 10000 nM	> 2900 nM	12%						
CNC(=O)c1cccc2c1CCC2c1ncc[nH]1 (stereo not drawn)	4340 nM	> 10000 nM	> 10000 nM	2200 nM	59%	44%					
Cn1ccc(-c2cccc3c2CCC3c2ncc[nH]2)n1 (stereo not drawn)	> 10000 nM	> 10000 nM	> 10000 nM	> 1300 nM	19%						
